Test results as given in EP3478687B1 (Daewoong Pharmaceutical Co., Ltd., priority 2016, dated 2018).

Tests used:
[1] = target: T1, Recombinant purified human JAK3 (Homo sapiens, UniProt P52333); assay: JAK3 kinase inhibitory activity, ADP-Glo kinase assay (Promega V9441); type: biochemical; details: ATP 5 uM, 4 ng JAK3 per reaction, 1 hour 30 °C, chemiluminescence
T1 construct: purchased Promega V9441
T1 sequence (P52333 1-1124): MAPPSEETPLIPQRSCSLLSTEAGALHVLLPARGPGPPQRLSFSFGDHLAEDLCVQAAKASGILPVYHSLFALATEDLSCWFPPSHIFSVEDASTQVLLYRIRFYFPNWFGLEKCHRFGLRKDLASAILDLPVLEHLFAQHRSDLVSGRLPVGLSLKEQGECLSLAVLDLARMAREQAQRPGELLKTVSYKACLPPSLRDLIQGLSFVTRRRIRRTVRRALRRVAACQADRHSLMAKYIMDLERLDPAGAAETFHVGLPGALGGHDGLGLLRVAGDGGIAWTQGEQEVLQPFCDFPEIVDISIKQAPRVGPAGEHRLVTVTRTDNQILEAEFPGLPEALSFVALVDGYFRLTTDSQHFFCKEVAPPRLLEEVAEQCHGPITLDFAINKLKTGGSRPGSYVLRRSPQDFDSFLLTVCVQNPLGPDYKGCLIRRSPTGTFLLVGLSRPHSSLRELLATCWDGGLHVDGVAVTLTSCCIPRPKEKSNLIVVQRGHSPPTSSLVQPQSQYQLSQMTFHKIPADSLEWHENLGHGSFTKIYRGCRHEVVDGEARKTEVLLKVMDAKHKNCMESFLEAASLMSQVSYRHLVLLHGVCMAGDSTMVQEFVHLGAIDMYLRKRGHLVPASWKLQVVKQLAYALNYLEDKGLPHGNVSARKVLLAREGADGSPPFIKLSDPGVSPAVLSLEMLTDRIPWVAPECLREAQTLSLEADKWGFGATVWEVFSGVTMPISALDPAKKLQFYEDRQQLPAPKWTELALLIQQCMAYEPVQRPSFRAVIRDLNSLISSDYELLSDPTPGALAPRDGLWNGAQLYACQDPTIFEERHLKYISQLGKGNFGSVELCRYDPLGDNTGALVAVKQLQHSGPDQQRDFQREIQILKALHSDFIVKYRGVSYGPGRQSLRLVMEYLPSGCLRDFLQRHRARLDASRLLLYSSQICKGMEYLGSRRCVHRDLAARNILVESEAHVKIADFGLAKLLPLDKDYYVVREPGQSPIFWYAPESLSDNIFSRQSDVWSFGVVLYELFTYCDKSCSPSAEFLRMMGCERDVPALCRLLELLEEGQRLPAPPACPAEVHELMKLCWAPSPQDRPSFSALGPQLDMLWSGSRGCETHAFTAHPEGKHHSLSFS
Protocol: (§1) JAK3 and BTK kinase inhibitory activities were measured for the compounds prepared in the above Examples through in vitro analysis on the ADP Glow (Glo) platform.
(§2) Specifically, the inhibitory activities of JAK3 and BTK kinase were measured using a JAK3 kinase assay kit (Promega, V9441) and a BTK kinase assay kit (Promega, V9071) which were purchased from Promega. Recombinant purified human JAK3 and BTK were diluted with 1 x kinase reaction buffer (JAK3: 40 mM Tris-Cl, pH 7.5, 20 mM MgCh, 0.1 mg/mL BSA and 50 uM DTT / BTK: 40 mM Tris-Cl, pH 7.5, 20 mM MgCl2, 0.1 mg/mL BSA, 2 mM MnCl2 and 50 uM DTT) and added to a 96 well plate (JAK3: final concentration of 4 ng per reaction/BTK: final concentration of 8 ng per reaction). The compounds were treated so as to be finally a 1% DMSO aqueous solution, and a substrate cocktail containing ATP (JAK3: final concentration of 5 uM / BTK: final concentration of 10 uM) and 0.2 µg/µL of Poly(Glu4, Tyr1) peptide (JAK3 and BTK final concentration) in the total 25 µL reactants was added to a 96-well plate to initiate enzymatic reaction. After incubation (30 °C) for 1 hour, equivalent volume (25 µL per reaction) of ADP Glo was added and incubated (30 °C) for 40 minutes at room temperature. Then, a kinase detection reagent (50 µL per reaction) was added and incubated (30 °C) for 30 minutes at room temperature. The kinase activity was measured by chemiluminescence according to the instructions of ADP Glo kinase assay kit, and the inhibitory activity of the compounds according to the present invention was calculated. For the analysis of the results of each compound, Microsoft Excel was used, and IC50 values were calculated by SigmaPlot software.

[2] = target: T2, Recombinant purified human BTK (Homo sapiens, UniProt Q06187); assay: BTK kinase inhibitory activity, ADP-Glo kinase assay (Promega V9071); type: biochemical; details: ATP 10 uM, 8 ng BTK per reaction, 1 hour 30 °C, chemiluminescence
T2 construct: purchased Promega V9071
T2 sequence (Q06187 whole entry): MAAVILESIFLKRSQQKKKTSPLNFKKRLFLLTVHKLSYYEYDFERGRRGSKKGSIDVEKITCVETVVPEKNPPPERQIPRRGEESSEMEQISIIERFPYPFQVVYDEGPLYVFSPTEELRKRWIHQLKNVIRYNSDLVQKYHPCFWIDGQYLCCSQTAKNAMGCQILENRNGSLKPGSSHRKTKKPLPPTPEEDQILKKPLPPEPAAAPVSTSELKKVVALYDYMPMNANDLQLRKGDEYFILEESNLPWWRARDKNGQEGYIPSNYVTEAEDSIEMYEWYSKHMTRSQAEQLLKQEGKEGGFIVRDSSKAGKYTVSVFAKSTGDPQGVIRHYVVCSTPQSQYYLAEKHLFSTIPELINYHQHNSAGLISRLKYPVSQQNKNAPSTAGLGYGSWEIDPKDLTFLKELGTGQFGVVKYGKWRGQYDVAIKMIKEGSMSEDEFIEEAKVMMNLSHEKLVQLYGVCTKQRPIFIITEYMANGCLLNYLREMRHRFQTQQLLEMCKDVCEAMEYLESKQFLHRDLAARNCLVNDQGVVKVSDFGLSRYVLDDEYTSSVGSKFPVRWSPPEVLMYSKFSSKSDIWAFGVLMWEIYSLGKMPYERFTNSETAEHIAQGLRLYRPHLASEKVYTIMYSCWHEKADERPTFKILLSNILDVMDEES
Protocol: as §1, §2

Q: What does the source list for `C=CC(=O)N1CCC[C@@H](Nc2nc(Nc3cnn(C(C)(C)C)c3)nc3[nH]cc(Cl)c23)C1` [Example 70, (R)-1-(3-((2-((1-(tert-butyl)-1H-pyrazol-4-yl)amino)-5-chloro-7H-pyrrolo[2,3-d]pyrimidin-4-yl)amino)piperidin-1-yl)prop-2-en-1-one]?
A: IC50 [1]: 0.2 nM; IC50 [2]: 2.3 nM

Q: How did the IC50 [1] turn out when `C=CC(=O)N1CCC[C@@H](Nc2nc(Nc3cnn(CC(F)F)c3)nc3[nH]cc(Cl)c23)C1` [Example 39, (R)-1-(3-(5-chloro-2-(1-(2,2-difluoroethyl)-1H-pyrazol-4-ylamino)-7H-pyrrolo[2,3-d]pyrimidin-4-ylamino)piperidin-1-yl)prop-2-en-1-one] was run?
A: 0.1 nM

Q: And the IC50 [2]?
A: 1.9 nM

Q: What does the source list for `C=CC(=O)N1CCC[C@@H](Nc2nc(Nc3ccc(-n4nc(C)cc4C)cc3)nc3[nH]cc(C)c23)C1` [Example 80, (R)-1-(3-((2-((4-(3,5-dimethyl-1H-pyrazol-1-yl)phenyl)amino)-5-methyl-7H-pyrrolo[2,3-d]pyrimidin-4-yl)amino)piperidin-1-yl)prop-2-en-1-one]?
A: IC50 [1]: 8.4 nM; IC50 [2]: 33.3 nM

Q: Which IC50 [1] does the source give for `N#C/C(=C\C1CC1)C(=O)N1CCC[C@@H](Nc2nc(Nc3cnn(C4CC4)c3)nc3[nH]nc(Cl)c23)C1` [Example 164, (R,E)-2-(3-((3-chloro-6-((1-cyclopropyl-1H-pyrazol-4-yl)amino)-1H-pyrazolo[3,4-d]pyrimidin-4-yl)amino)piperidine-1-carbonyl)-3-cyclopropylacrylonitrile] here?
A: 8.8 nM

Q: And the IC50 [2]?
A: 2.2 nM

Q: Which IC50 [1] does the source give for `CCn1cc(Nc2nc(N[C@@H]3CCCN(C(=O)/C(C#N)=C/C4CC4)C3)c3c(Cl)n[nH]c3n2)cn1` [Example 166] here?
A: 5.6 nM

Q: What about the IC50 [2] of the same molecule?
A: 1.2 nM

Q: For `C=CC(=O)N1CCC[C@@H](Nc2nc(Nc3ccc(-n4nc(C)cc4C)cc3)nc3[nH]nc(Cl)c23)C1` [Example 43], which IC50 [1] is on record?
A: 9.9 nM

Q: And the IC50 [2]?
A: 6.7 nM

Q: Which results are given for `C=CC(=O)N1CCC[C@@H](Nc2nc(Nc3cnn(C4CC4)c3)nc3[nH]ncc23)C1` [Example 67, (R)-1-(3-((6-((1-cyclopropyl-1H-pyrazol-4-yl)amino)-1H-pyrazolo [3,4-d]pyrimidin-4-yl)amino)piperidin-1-yl)prop-2-en-1-one]?
A: IC50 [1]: 5.7 nM; IC50 [2]: 1.7 nM

Q: Which results are given for `C=CC(=O)N1CCC[C@@H](Nc2nc(Nc3cnn(C(C)(C)C)c3)nc3[nH]nc(C)c23)C1` [Example 187, (R)-1-(3-((6-((1-(tert-butyl)-1H-pyrazol-4-yl)amino)-3-methyl-1H-pyrazolo [3,4-d]pyrimidin-4-yl)amino)piperidin-1-yl)prop-2-en-1-one]?
A: IC50 [1]: 14.6 nM; IC50 [2]: 1.8 nM

Q: Which results are given for `C=CC(=O)N1CCC[C@@H](Nc2nc(Nc3cnn(C)c3)nc3[nH]cc(Cl)c23)C1` [Example 69, (R)-1-(3-((5-chloro-2-((1-methyl-1H-pyrazol-4-yl)amino)-7H-pyrrolo[2,3-d]pyrimidin-4-yl)amino)piperidin-1-yl)prop-2-en-1-one]?
A: IC50 [1]: 0.3 nM; IC50 [2]: 8.6 nM

Q: With `C=CC(=O)N1CCC[C@@H](Nc2nc(Nc3cnn(C)c3)nc3[nH]nc(Cl)c23)C1` [Example 45, (R)-1-(3-(3-chloro-6-(1-methyl-1H-pyrazol-4-ylamino)-1H-pyrazolo [3,4-d]pyrimidin-4-ylamino)piperidin-1-yl)prop-2-en-1-one] as the molecule, how does the IC50 [1] read?
A: 0.7 nM

Q: What about the IC50 [2] of the same molecule?
A: 2.9 nM

Q: What does the source list for `C=CC(=O)N1CC[C@@H](C)[C@@H](Nc2nc(Nc3cnn(CC)c3)nc3[nH]nc(SC)c23)C1` [Example 132, 1-((3R,4R)-3-((6-((1-ethyl-1H-pyrazol-4-yl)amino)-3-(methylthio)-1H-pyrazolo[3,4-d]pyrimidin-4-yl)amino)-4-methylpiperidin-1-yl)prop-2-en-1-one]?
A: IC50 [1]: 25.5 nM; IC50 [2]: 2.1 nM

Q: For `C=CC(=O)N1CCC[C@@H](Nc2nc(Nc3ccc4ncsc4c3)nc3[nH]ccc23)C1` [Example 12, (R)-1-(3-(2-(benzo[d]thiazol-6-ylamino)-7H-pyrrolo[2,3-d]pyrimidin-4-ylamino)piperidin-1-yl)prop-2-en-1-one], which IC50 [1] is on record?
A: 1.3 nM

Q: What about the IC50 [2] of the same molecule?
A: 10.6 nM

Q: Which IC50 [1] does the source give for `C=CC(=O)N1CCC[C@@H](Sc2nc(Nc3cnoc3)nc3[nH]nc(Cl)c23)C1` [Example 116, (R)-1-(3-((3-chloro-6-(isoxazol-4-ylamino)-1H-pyrazolo [3,4-d]pyrimidin-4-yl)thio)piperidin-1-yl)prop-2-en-1-one] here?
A: 19.5 nM

Q: What about the IC50 [2] of the same molecule?
A: 25.3 nM

Q: With `CCn1cc(Nc2nc(N[C@H]3CN(C(=O)/C(C#N)=C/C4CC4)CC[C@H]3C)c3c(Cl)n[nH]c3n2)cn1` [Example 169, (E)-2-((3R,4R)-3-((3-chloro-6-((1-ethyl-1H-pyrazol-4-yl)amino)-1H-pyrazolo[3,4-d]pyrimidin-4-yl)amino)-4-methylpiperidine-1-carbonyl)-3-cyclopropylacrylonitrile] as the molecule, how does the IC50 [1] read?
A: 241 nM

Q: And the IC50 [2]?
A: 2.2 nM

Q: For `C=CC(=O)N1CCC[C@@H](Oc2nc(Nc3cnn(CC)c3)nc3[nH]ccc23)C1` [Example 151, (R)-1-(3-((2-((1-ethyl-1H-pyrazol-4-yl)amino)-7H-pyrrolo[2,3-d]pyrimidin-4-yl)oay)piperidin-1-yl)prop-2-en-1-one], which IC50 [1] is on record?
A: 0.4 nM

Q: And the IC50 [2]?
A: 3 nM

Q: How did the IC50 [1] turn out when `N#C/C(=C\C1CC1)C(=O)N1CCC[C@@H](Oc2nc(Nc3cnn(C4CC4)c3)nc3[nH]nc(Cl)c23)C1` [Example 154, (R,E)-2-(3-((3-chloro-6-((1-cyclopropyl-1H-pyrazol-4-yl)amino)-1H-pyrazolo[3,4-d]pyrimidin-4-yl)oxy)piperidine-1-carbonyl)-3-cyclopropylacrylonitrile] was run?
A: 54.2 nM

Q: And the IC50 [2]?
A: 2.5 nM

Q: Which IC50 [1] does the source give for `CCn1cc(Nc2nc(N[C@@H]3CCCN(C(=O)/C(C#N)=C/C4CC4)C3)c3cn[nH]c3n2)cn1` [Example 175, (R,E)-3-cyclopropyl-2-(3-((6-((1-ethyl-1H-pyrazol-4-yl)amino)-1H-pyrazolo[3,4-d]pyrimidin-4-yl)amino)piperidine-1-carbonyl)acrylonitrile] here?
A: 14.9 nM

Q: What about the IC50 [2] of the same molecule?
A: 1.4 nM

Q: `C=CC(=O)N1CCC[C@@H](Nc2nc(Nc3cnn(C(F)F)c3)nc3[nH]ccc23)C1` [Example 16, (R)-1-(3-(2-(1-(difluoromethyl)-1H-pyrazol-4-ylamino)-7H-pyrrolo[2,3-d]pyrimidin-4-ylamino)piperidin-1-yl)prop-2-en-1-one] was tested. Which IC50 [1] did it give?
A: 0.4 nM

Q: What about the IC50 [2] of the same molecule?
A: 10.1 nM

Q: `C=CC(=O)N1CCC[C@@H](Nc2nc(Nc3cnn(Cc4cccc(OC)c4)c3)nc3[nH]cc(Cl)c23)C1` [Example 41, (R)-1-(3-(5-chloro-2-(1-(3-methoaybenzyl)-1H-pyrazol-4-ylamino)-7H-pyrrolo[2,3-d]pyrimidin-4-ylamino)piperidin-1-yl)prop-2-en-1-one] was tested. Which IC50 [1] did it give?
A: 0.5 nM

Q: And the IC50 [2]?
A: 1.8 nM

Q: For `C=CC(=O)N1CCC[C@@H](Nc2nc(Nc3cnn(CC(=O)NC)c3)nc3[nH]ccc23)C1` [Example 24, (R)-2-(4-(4-(1-acryloylpiperidin-3-ylamino)-7H-pyrrolo[2,3-d]pyrimidin-2-ylamino)-1H-pyrazol-1-yl)-N-methylacetamide], which IC50 [1] is on record?
A: 0.4 nM

Q: What about the IC50 [2] of the same molecule?
A: 15.3 nM
